# Experimental data from patent publication US8846719B2, “Isoxazolo-pyridine derivatives” (Roche Palo Alto LLC, priority 2007, dated 2014).
# Molecular target: human GABA A receptor α5β3γ2 (Homo sapiens (Human), UniProt P18507+P31644)
# Assay: [3H]flumazenil competition binding assay, human GABA A α5β3γ2 receptors expressed in HEK293 cells
# Settings: human receptor; displacement of [3H]flumazenil (0.5 nM); means of two determinations; read-out: hKi GABAAa5
# Procedure, shortened: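 Competition for [3H]flumazenil binding on membranes of HEK293 cells transiently transfected with human α5β3γ2 receptors, in Krebs-tris buffer pH 7.5.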
row,SMILES,Ki
1,"COC(=O)c1ccc(NCc2c(-c3ccccc3)noc2C)nc1 [Example 161, 6-[(5-Methyl-3-phenyl-isoxazol-4-ylmethyl)-amino]-nicotinic acid methyl ester]",27.4 nM
2,"Cc1onc(-c2ccccc2)c1CNc1ccc(C(=O)NC2CC2)cn1 [Example 165, N-Cyclopropyl-6-[(5-methyl-3-phenyl-isoxazol-4-ylmethyl)-amino]-nicotinamide]",10.6 nM
3,"Cc1onc(-c2ccccc2)c1CNc1ccc(C(=O)NC2CCOCC2)cn1 [Example 166, 6-[(5-Methyl-3-phenyl-isoxazol-4-ylmethyl)-amino]-N-(tetrahydro-pyran-4-yl)-nicotinamide]",8.8 nM
4,"COC(=O)c1ccc(NCc2c(-c3cccc(F)c3)noc2C)nc1 [Example 167, 6-{[3-(3-Fluoro-phenyl)-5-methyl-isoxazol-4-ylmethyl]-amino}-nicotinic acid methyl ester]",69.3 nM
5,"Cc1onc(-c2cccc(F)c2)c1CNc1ccc(C(=O)NCC(F)(F)F)cn1 [Example 168, 6-{[3-(3-Fluoro-phenyl)-5-methyl-isoxazol-4-ylmethyl]-amino}-N-(2,2,2-trifluoro-ethyl)-nicotinamide]",17.8 nM
6,"Cc1onc(-c2ccc(F)cc2)c1CNc1ccc(C(=O)NCC(F)(F)F)cn1 [Example 173, 6-{[3-(4-Fluoro-phenyl)-5-methyl-isoxazol-4-ylmethyl]-amino}-N-(2,2,2-trifluoro-ethyl)-nicotinamide]",5.9 nM
7,"Cc1onc(-c2ccc(F)cc2)c1CNc1ccc(C(=O)NCC2CC2)cn1 [Example 174, N-Cyclopropylmethyl-6-{[3-(4-fluoro-phenyl)-5-methyl-isoxazol-4-ylmethyl]-amino}-nicotinamide]",7.6 nM
8,"Cc1onc(-c2ccc(F)cc2)c1CNc1ccc(C(=O)NC(C)C)cn1 [Example 175, 6-{[3-(4-Fluoro-phenyl)-5-methyl-isoxazol-4-ylmethyl]-amino}-N-isopropyl-nicotinamide]",3.7 nM
9,"Cc1onc(-c2ccc(F)cc2)c1CNc1ccc(C(=O)NC2CC2)cn1 [Example 176, N-Cyclopropyl-6-{[3-(4-fluoro-phenyl)-5-methyl-isoxazol-4-ylmethyl]-amino}-nicotinamide]",7.4 nM
10,"Cc1onc(-c2ccc(F)cc2)c1CNc1ccc(C(=O)N2CCS(=O)(=O)CC2)cn1 [Example 178, (1,1-Dioxo-1,6-thiomorpholin-4-yl)-(6-{[3-(4-fluoro-phenyl)-5-methyl-isoxazol-4-ylmethyl]-amino}-pyridin-3-yl)-methanone]",29.2 nM
11,"COC(=O)C(=O)Nc1ccc(OCc2c(-c3ccccc3)noc2C)nc1 [Example 180, N-[6-(5-Methyl-3-phenyl-isoxazol-4-ylmethoxy)-pyridin-3-yl]-oxalamic acid methyl ester]",7.2 nM
12,"Cc1onc(-c2ccccc2)c1COc1ccc(NC(=O)C(C)C)cn1 [Example 181, N-[6-(5-Methyl-3-phenyl-isoxazol-4-ylmethoxy)-pyridin-3-yl]-isobutyramide]",19.2 nM
13,"Cc1onc(-c2ccccc2)c1COc1ccc(NC(=O)C2CC2)cn1 [Example 182, Cyclopropanecarboxylic acid [6-(5-methyl-3-phenyl-isoxazol-4-ylmethoxy)-pyridin-3-yl]-amide]",10.1 nM
14,"Cc1onc(-c2ccccc2)c1COc1ccc(C(=O)NCC(O)C(F)(F)F)cn1 (stereo not drawn) [Example 186, 6-(5-Methyl-3-phenyl-isoxazol-4-ylmethoxy)-N-(3,3,3-trifluoro-2-hydroxy-propyl)-nicotinamide]",2.3 nM
15,"Cc1onc(-c2ccccc2)c1COc1ccc(C(=O)N2CCC(O)CC2)cn1 [Example 187, (4-Hydroxy-piperidin-1-yl)-[6-(5-methyl-3-phenyl-isoxazol-4-ylmethoxy)-pyridin-3-yl]-methanone]",73.4 nM
16,"Cc1onc(-c2ccccc2)c1COc1ccc(C(=O)NCCOC(C)C)cn1 [Example 189, N-(2-Isopropoxy-ethyl)-6-(5-methyl-3-phenyl-isoxazol-4-ylmethoxy)-nicotinamide]",41.3 nM

# The remaining compounds from weak to strong by Ki, led by results:
row,Ki,SMILES
1,37.3 nM,"Cc1onc(-c2ccccc2)c1CNc1ccc(C(=O)NCCN2CCCC2=O)cn1 [Example 163, 6-[(5-Methyl-3-phenyl-isoxazol-4-ylmethyl)-amino]-N-[2-(2-oxo-pyrrolidin-1-yl)-ethyl]-nicotinamide]"
2,25.9 nM,"COC(=O)c1ccc(NCc2c(-c3ccc(F)cc3)noc2C)nc1 [Example 172, 6-{[3-(4-Fluoro-phenyl)-5-methyl-isoxazol-4-ylmethyl]-amino}-nicotinic acid methyl ester]"
3,19.4 nM,"Cc1onc(-c2cccc(F)c2)c1CNc1ccc(C(=O)NC2CC2)cn1 [Example 170, N-Cyclopropyl-6-{[3-(3-fluoro-phenyl)-5-methyl-isoxazol-4-ylmethyl]-amino}-nicotinamide]"
4,15.4 nM,"Cc1onc(-c2cccc(F)c2)c1CNc1ccc(C(=O)NC(C)C)cn1 [Example 169, 6-{[3-(3-Fluoro-phenyl)-5-methyl-isoxazol-4-ylmethyl]-amino}-N-isopropyl-nicotinamide]"
5,14.9 nM,"Cc1onc(-c2cccc(F)c2)c1CNc1ccc(C(=O)NC2CCOCC2)cn1 [Example 171, 6-{[3-(3-Fluoro-phenyl)-5-methyl-isoxazol-4-ylmethyl]-amino}-N-(tetrahydro-pyran-4-yl)-nicotinamide]"
6,10.4 nM,"Cc1onc(-c2ccccc2)c1CNc1ccc(C(=O)NCCO)cn1 [Example 162, N-(2-Hydroxy-ethyl)-6-[(5-methyl-3-phenyl-isoxazol-4-ylmethyl)-amino]-nicotinamide]"
7,10 nM,"Cc1onc(-c2ccccc2)c1COc1ccc(C(=O)NC(C)(C)CO)cn1 [Example 183, N-(2-Hydroxy-1,1-dimethyl-ethyl)-6-(5-methyl-3-phenyl-isoxazol-4-ylmethoxy)-nicotinamide]"
8,9.4 nM,"CC(=O)Nc1ccc(OCc2c(-c3ccccc3)noc2C)nc1 [Example 179, N-[6-(5-Methyl-3-phenyl-isoxazol-4-ylmethoxy)-pyridin-3-yl]-acetamide]"
9,7.8 nM,"COCCNC(=O)c1ccc(OCc2c(-c3ccccc3)noc2C)nc1 [Example 184, N-(2-Methoxy-ethyl)-6-(5-methyl-3-phenyl-isoxazol-4-ylmethoxy)-nicotinamide]"
10,7.7 nM,"Cc1onc(-c2ccccc2)c1COc1ccc(C(=O)NCC(C)(C)CO)cn1 [Example 188, N-(3-Hydroxy-2,2-dimethyl-propyl)-6-(5-methyl-3-phenyl-isoxazol-4-ylmethoxy)-nicotinamide]"
11,6.5 nM,"Cc1onc(-c2ccc(F)cc2)c1CNc1ccc(C(=O)NC2CCOCC2)cn1 [Example 177, 6-{[3-(4-Fluoro-phenyl)-5-methyl-isoxazol-4-ylmethyl]-amino}-N-(tetrahydro-pyran-4-yl)-nicotinamide]"
12,5.9 nM,"Cc1onc(-c2ccccc2)c1CNc1ccc(C(=O)NC(C)C)cn1 [Example 164, N-Isopropyl-6-[(5-methyl-3-phenyl-isoxazol-4-ylmethyl)-amino]-nicotinamide]"
13,4.5 nM,"Cc1onc(-c2ccccc2)c1COc1ccc(C(=O)NC2CCS(=O)(=O)C2)cn1 (stereo not drawn) [Example 185, N-(1,1-Dioxo-tetrahydro-thiophen-3-yl)-6-(5-methyl-3-phenyl-isoxazol-4-ylmethoxy)-nicotinamide]"
14,1 nM,"Cc1onc(-c2ccccc2)c1COc1ccc(C(=O)NC(C)CO)cn1 (stereo not drawn) [Example 190, N-(2-Hydroxy-1-methyl-ethyl)-6-(5-methyl-3-phenyl-isoxazol-4-ylmethoxy)-nicotinamide]"
